Reference: US11053300B2, “Membrane span-kinase fusion protein and the uses thereof” (VIB VZW, priority 2012, dated 2021)

Experiments:
ERN1 [1] = target: T1, ERN1 (Homo sapiens, UniProt O75460); conditions: reported, Feldman and Koong, 2007; cited from earlier work
Target sequence in this assay (O75460 19-977, species assumed): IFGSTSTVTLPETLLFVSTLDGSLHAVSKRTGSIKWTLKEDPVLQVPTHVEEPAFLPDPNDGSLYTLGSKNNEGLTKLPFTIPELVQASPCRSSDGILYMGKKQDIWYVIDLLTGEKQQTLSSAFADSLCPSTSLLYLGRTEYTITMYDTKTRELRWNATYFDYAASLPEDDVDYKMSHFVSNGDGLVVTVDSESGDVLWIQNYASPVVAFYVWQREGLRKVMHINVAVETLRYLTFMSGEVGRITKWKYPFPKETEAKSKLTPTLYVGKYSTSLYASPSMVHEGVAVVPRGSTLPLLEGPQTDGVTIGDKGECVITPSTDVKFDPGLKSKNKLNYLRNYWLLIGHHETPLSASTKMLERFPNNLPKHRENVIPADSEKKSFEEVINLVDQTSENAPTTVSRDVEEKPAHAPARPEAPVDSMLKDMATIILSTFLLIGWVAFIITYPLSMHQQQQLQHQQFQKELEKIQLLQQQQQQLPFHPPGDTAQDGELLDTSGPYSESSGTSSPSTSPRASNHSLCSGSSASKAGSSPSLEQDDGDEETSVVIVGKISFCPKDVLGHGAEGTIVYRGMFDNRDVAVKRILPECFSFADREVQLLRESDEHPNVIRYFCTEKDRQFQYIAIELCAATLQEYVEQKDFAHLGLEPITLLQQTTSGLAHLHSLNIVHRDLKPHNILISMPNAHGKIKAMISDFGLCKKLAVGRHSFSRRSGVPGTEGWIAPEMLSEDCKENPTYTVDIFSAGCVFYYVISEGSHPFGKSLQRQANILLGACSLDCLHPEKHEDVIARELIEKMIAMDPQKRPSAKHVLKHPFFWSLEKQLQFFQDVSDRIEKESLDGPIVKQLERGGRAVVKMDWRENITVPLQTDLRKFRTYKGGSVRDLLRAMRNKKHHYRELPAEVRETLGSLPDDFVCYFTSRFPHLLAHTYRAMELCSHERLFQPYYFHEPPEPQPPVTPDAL

ERN1 [2] = target: T1, ERN1; assay: ERN1 dimerization, ERN1-Tyk2(C)/ERN1-gp130 luciferase reporter assay; format: cell-based; parameters: Flag (N); expressed in transfected cells; host or cells: HEK293-T
Protocol: Transfections were carried out using a standard calcium phosphate method. HEK293-T cells were seeded in black tissue-culture treated 96-well plates at 10.000 cells/well in 100 μl culture medium (DMEM supplemented with 10% FCS). Twenty-four hours later, plasmid DNA mixes were prepared that contained plasmids encoding fusion proteins with the first and second interacting proteins and reporter plasmids. The DNA was supplemented with 5 μl 2.5M CaCl2) and double distilled water to a final volume of 50 μl. This mixture was added drop wise to 50 μl 2×HeBS buffer (280 mM NaCl, 1.5 mM Na2HPO4, 50 mM Hepes; pH 7.05) while vigorously vortexing. After incubation at room temperature for 15 min. to allow DNA precipitates to form, the solution was added to the cells at 10 μl/well. Cells were incubated at 37° C., 8% CO2. Twenty-four hours after transfection, cells were treated with the indicated amounts of ligand, either alone or combined with the indicated amount of antagonist. […] Another twenty-four hours later, luciferase activity was measured using the Luciferase Assay System kit (Promega) on a TopCount luminometer (Perkin-Elmer). Each transfection was done in triplicate and the average of the luciferase activity readings was used in the calculations.
Tunicamycin (Sigma T7765; 2 mg/ml stock in DMSO) was diluted in culture medium and added to the cells 24 h prior to luciferase signal read-out. […]
Target sequence in this assay (O75460 with tags, fused parts or gaps): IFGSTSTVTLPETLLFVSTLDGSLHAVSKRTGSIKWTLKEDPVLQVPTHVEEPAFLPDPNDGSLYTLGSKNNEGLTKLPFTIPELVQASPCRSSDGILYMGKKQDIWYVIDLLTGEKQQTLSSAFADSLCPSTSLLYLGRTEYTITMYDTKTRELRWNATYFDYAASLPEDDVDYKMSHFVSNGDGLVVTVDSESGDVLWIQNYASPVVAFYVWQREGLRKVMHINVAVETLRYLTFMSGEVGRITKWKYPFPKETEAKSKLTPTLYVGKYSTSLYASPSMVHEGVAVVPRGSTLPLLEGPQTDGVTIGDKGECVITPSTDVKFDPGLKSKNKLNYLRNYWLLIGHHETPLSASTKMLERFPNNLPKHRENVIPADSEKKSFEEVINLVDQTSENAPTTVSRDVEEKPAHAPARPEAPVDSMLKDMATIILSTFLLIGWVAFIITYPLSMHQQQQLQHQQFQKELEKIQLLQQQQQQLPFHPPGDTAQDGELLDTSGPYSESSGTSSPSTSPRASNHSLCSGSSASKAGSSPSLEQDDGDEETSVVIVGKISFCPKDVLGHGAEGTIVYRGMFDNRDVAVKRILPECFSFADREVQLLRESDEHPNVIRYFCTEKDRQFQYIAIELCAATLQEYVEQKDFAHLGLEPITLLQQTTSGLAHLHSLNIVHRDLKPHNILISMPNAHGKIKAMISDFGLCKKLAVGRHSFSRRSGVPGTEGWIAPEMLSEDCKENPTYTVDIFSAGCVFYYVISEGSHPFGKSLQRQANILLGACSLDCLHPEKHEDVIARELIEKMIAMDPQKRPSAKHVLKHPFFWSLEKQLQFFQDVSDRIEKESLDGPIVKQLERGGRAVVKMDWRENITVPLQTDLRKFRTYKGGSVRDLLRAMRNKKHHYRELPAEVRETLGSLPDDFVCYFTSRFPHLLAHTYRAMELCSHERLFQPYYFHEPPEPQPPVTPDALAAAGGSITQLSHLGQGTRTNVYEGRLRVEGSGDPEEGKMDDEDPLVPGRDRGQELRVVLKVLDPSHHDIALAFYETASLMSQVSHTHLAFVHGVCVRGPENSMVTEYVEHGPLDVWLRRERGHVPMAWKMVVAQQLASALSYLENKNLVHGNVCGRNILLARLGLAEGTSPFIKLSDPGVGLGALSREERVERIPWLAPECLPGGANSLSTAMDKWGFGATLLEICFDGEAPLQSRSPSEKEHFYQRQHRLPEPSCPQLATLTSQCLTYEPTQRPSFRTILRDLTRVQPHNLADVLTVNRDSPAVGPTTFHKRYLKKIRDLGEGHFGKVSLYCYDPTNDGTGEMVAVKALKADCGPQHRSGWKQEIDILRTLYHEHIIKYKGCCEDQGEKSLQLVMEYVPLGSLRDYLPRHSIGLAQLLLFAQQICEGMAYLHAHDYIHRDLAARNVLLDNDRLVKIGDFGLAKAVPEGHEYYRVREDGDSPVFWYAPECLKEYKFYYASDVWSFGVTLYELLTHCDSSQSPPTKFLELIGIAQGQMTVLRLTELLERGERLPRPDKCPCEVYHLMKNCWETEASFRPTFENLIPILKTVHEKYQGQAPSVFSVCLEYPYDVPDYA

[3] = target: T2, human somatostatin receptor 2 (SSTR2) (Homo sapiens, UniProt P30874); assay: Ligand-dependent SSTR2-ARRB2 interaction, Tyk2(C)/gp130 fusion STAT3-luciferase reporter assay; format: cell-based; conditions: for effect of antagonist on SSTR2-ARRB2 interaction signal: 1 μM somatostatin, 0.05 or 0.5 μM CYN154806, 0.1 or 1 μM losartan or telmisartan, FIG. 4 transfection b; for effect of antagonist on SSTR2-ARRB2 interaction signal, dose-response: 10 μM somatostatin, antagonist 10^-13 M up to 10^-6 M, FIG. 5A
T2 construct: expressed in transfected cells; host or cells: HEK293-T
Excerpt: (§1) The membrane span protein (X) is fused to the C-terminal region of Tyk2 comprising the kinase domain, whereas the polypeptide interacting with the membrane span protein (Y) is fused to a fragment of gp130 which contains phosphorylation sites. When membrane span protein X and the polypeptide Y interact, the Tyk2 kinase domain phosphorylates the phosphorylation sites of gp130. STAT3 transcription factors are recruited to these phosphorylated sites and are in turn phosphorylated by the Tyk2 kinase domain, which results in their activation. Dimers of activated STAT3 transcription factors are able to bind the specific rPAPI promoter, which drives the expression of a firefly luciferase reporter gene. The activity of this reporter gene is measured as light production in a luciferase detection assay using a luminometer.
(§2) The fold induction for each sample was calculated as the ratio of the measured luciferase activity relative to the luciferase activity for the untreated sample of the same transfection.
The assay was further optimized by transferring the Tyk2(C) fusion construct into another vector system (pSVSport) and testing the resulting constructs in a similar experiment as described above. The following combinations of plasmids were transfected (500 ng of the Tyk2(C) fusion construct, 250 ng of the gp130 fusion construct and 50 ng of the luciferase reporter construct) according to the methods described above: […]

[4] = target: T3, human angiotensin receptor 1 (AGTR1) (Homo sapiens, UniProt P30556); assay: Ligand-dependent AGTR1-ARRB2 interaction, Tyk2(C)/gp130 fusion STAT3-luciferase reporter assay; format: cell-based; conditions: 10 μM angiotensin II; for effect of antagonist on AGTR1-ARRB2 interaction signal: 0.05 or 0.5 μM CYN154806, 0.1 or 1 μM losartan or telmisartan, FIG. 4 transfection d; for effect of antagonist on AGTR1-ARRB2 interaction signal, dose-response: antagonist 10^-13 M up to 10^-6 M
T3 construct: expressed in transfected cells; host or cells: HEK293-T
T3 sequence (P30556 with tags, fused parts or gaps): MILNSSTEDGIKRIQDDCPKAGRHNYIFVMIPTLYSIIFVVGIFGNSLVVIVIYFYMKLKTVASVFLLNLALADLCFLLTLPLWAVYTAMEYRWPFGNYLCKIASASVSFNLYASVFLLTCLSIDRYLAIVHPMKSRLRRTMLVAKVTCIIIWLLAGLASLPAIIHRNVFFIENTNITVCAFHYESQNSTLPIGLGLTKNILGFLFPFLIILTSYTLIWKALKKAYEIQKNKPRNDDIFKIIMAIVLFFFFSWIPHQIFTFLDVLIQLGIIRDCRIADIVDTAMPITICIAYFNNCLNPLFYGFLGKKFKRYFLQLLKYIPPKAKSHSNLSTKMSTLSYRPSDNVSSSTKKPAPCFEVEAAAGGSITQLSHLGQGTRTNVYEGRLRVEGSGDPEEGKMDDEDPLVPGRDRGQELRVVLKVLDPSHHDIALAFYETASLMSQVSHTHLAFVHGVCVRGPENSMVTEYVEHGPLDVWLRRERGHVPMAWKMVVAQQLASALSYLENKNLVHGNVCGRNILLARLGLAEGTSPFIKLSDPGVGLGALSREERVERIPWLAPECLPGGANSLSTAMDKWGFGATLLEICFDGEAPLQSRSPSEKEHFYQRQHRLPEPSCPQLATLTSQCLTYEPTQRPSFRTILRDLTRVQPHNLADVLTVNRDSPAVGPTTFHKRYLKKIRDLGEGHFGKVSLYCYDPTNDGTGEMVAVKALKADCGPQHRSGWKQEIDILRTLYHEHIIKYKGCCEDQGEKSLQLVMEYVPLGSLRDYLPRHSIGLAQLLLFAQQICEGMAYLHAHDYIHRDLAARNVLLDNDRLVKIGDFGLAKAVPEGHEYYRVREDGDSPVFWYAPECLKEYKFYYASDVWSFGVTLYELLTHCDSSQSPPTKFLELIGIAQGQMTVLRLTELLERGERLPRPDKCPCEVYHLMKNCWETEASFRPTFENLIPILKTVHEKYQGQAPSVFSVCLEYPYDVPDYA
Excerpt: as §1
Transfections were carried out using a standard calcium phosphate method. HEK293-T cells were seeded in black tissue-culture treated 96-well plates at 10.000 cells/well in 100 μl culture medium (DMEM supplemented with 10% FCS). Twenty-four hours later, plasmid DNA mixes were prepared that contained plasmids encoding fusion proteins with the first and second interacting proteins and reporter plasmids. The DNA was supplemented with 5 μl 2.5M CaCl2) and double distilled water to a final volume of 50 μl. This mixture was added drop wise to 50 μl 2×HeBS buffer (280 mM NaCl, 1.5 mM Na2HPO4, 50 mM Hepes; pH 7.05) while vigorously vortexing. After incubation at room temperature for 15 min. to allow DNA precipitates to form, the solution was added to the cells at 10 μl/well. Cells were incubated at 37° C., 8% CO2. Twenty-four hours after transfection, cells were treated with the indicated amounts of ligand, either alone or combined with the indicated amount of antagonist. In the case of Irestatin 9389, cells were pre-treated with the antagonist before adding vehicle (DMSO) or tunicamycin. Another twenty-four hours later, luciferase activity was measured using the Luciferase Assay System kit (Promega) on a TopCount luminometer (Perkin-Elmer). Each transfection was done in triplicate and the average of the luciferase activity readings was used in the calculations.
as §2
Cells were transfected with the following combinations of plasmids (250 ng of the Tyk2(C) fusion construct, 250 ng of the gp130 fusion construct and 50 ng of the luciferase reporter construct) according to the methods described above:
Cells were transfected with 125 ng of the pMet7-SSTR2-Tyk2(C)−HA or pMet7-AGTR1-Tyk2(C)−HA fusion construct, 250 ng of the pMG2-ARRB2 gp130 fusion construct and 50 ng of the pXP2d2-rPAPI-luciferase reporter plasmid, according to the methods described above.

T2 sequence (P30874 with tags, fused parts or gaps): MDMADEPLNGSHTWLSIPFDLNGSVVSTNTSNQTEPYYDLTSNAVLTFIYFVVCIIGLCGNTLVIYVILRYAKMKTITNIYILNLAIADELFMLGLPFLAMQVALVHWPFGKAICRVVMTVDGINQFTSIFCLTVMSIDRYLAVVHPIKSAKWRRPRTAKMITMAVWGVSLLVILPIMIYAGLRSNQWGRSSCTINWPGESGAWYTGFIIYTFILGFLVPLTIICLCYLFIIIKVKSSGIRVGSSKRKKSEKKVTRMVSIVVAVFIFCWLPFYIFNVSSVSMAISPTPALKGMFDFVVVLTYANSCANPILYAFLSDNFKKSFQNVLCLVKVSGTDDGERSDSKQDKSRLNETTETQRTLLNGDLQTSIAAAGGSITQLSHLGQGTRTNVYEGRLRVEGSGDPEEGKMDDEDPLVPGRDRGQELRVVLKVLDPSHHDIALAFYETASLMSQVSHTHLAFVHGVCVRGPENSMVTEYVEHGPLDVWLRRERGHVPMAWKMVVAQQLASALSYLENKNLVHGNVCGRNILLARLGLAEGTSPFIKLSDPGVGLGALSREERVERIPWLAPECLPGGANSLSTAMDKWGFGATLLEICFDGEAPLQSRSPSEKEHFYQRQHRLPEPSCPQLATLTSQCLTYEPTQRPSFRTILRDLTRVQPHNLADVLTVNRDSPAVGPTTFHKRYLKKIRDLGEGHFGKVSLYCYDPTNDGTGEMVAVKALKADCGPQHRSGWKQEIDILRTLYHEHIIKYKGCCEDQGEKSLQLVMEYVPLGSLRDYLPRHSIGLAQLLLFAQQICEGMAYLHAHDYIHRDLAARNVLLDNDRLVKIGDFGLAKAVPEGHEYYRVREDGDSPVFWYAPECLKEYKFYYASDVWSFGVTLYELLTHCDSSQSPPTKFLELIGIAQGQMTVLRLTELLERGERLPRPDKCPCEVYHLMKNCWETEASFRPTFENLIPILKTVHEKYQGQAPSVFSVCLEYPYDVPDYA

Row | Compound | ERN1 endonuclease activity (ERN1 [1]) | disruption of ERN1 dimerization (ERN1 [2]; 1 μg/ml tunicamycin or vehicle (DMSO) combined with increasing doses of Irestatin 9389, FIG. 6D) | effect of antagonist on SSTR2-ARRB2 interaction signal [3] | effect of antagonist on SSTR2-ARRB2 interaction signal, dose-response [3] | effect of antagonist on AGTR1-ARRB2 interaction signal [4] | effect of antagonist on AGTR1-ARRB2 interaction signal, dose-response ([4]; FIG. 5B) | effect of telmisartan compared to losartan on AGTR1-ARRB2 interaction ([4]; dose-response, FIG. 5B) | luciferase signal of ERN1 dimerization upon induction of ER-stress (ERN1 [2]; HEK293-T cells, ERN1-Tyk2(C) + ERN1-gp130, 0-0.5-1-2 μg/ml tunicamycin, FIG. 6A)
1 | Cc1csc(NC(=O)CSc2nc3c(c(C(F)(F)F)c2C#N)CCC3)n1 [Irestatin 9389] | inhibit ERN1 endonuclease activity | dose-dependent disruption of ERN1 dimerization | – | – | – | – | – | –
2 | CCCCc1nc(Cl)c(CO)n1Cc1ccc(-c2ccccc2-c2nn[nH]n2)cc1 [losartan] | – | – | no effect | no effect | selectively inhibited | selectively and completely inhibited | – | –
3 | CCCc1nc2c(C)cc(-c3nc4ccccc4n3C)cc2n1Cc1ccc(-c2ccccc2C(=O)O)cc1 [telmisartan] | – | – | no effect | no effect | selectively inhibited | selectively and completely inhibited | stronger effect | –
4 | tunicamycin | – | – | – | – | – | – | – | dose-dependent signal
